“Also recorded” adds a separate entry of the source.
Experiments:
INS-1 cells = experiment: Proliferation of INS-1 cells ([methyl-3H] thymidine incorporation); assay type: cell-based, rat; settings: wells coated with peptide and blocked with BSA, vs BSA coated control wells
Protocol: To investigate if FOL-005 and FOL-014 could induce proliferation of β-cells we used INS-1 cells. Rat INS-1 cells were seeded in 96-well plates in RPMI medium with supplement and after 2 hours the medium was changed to RPMI without supplement. During the proliferation experiment the cells were incubated at different test conditions (FOL-005, FOL-014, coated or in solution, 48 h incubation) and during the last 20 hours of culture period the cells were pulsed with 1 μ Ci/well of [methyl-3H] thymidine. The cells were then harvested onto glass fiber filters using a FilterMate harvester. The filters were air dried, and the bound radioactivity was measured using a liquid scintillation counter. To study whether FOL-005 influenced β-cell proliferation, INS-1 cells were treated with increasing amounts of soluble FOL-005 (0.06-6 μM) during 48 hours and proliferation was measured with radiolabeled thymidine incorporation into newly synthesized DNA.

INS-1 β-cells = experiment: Insulin secretion from INS-1 cells (Examples 4 and 6); assay type: cell-based, rat; settings: Example 6, 6 μM peptide, KRB buffer, 60 min, vs unstimulated control cells
Protocol: To investigate the stimulatory effect of FOL-005 on insulin secretion, INS-1 β-cells were used in the following experiments. Cells were seeded overnight in cRPMI and then washed with PBS before pre-incubation for 60 min at 37° C. in Krebs-Ringer bicarbonate buffer (KRB), pH 7.4, supplemented with 10 mM HEPES, 0.1% bovine serum albumin. After pre-incubation, the buffer was changed and the INS-1 cells were incubated at different test conditions (0 mM, 5 mM or 20 mM glucose) and stimulated with peptide FOL-005 or FOL-015 (SEQ ID NO: 158) or left untreated during 60 min at 37° C. Immediately after incubation, an aliquot of the buffer was removed and frozen for subsequent assay of insulin with an insulin radioimmunoassay kit.
INS-1 β-cells were used to investigate the stimulatory effect of FOL-014 on insulin secretion. Cells were seeded overnight and then washed with PBS before pre-incubation for 60 min at 37° C. in Krebs-Ringer bicarbonate buffer (KRB), pH 7.4, supplemented with 10 mM HEPES, 0.1% bovine serum albumin. After pre-incubation, the buffer was changed and the INS-1 cells were incubated in new KRB buffer supplemented with 10 mM HEPES, 0.1% bovine serum albumin and stimulated with peptide FOL-014 or left untreated during 60 min at 37° C. Immediately after incubation, an aliquot of the buffer was removed and frozen for subsequent assay of insulin.

mouse pancreatic islets = experiment: Insulin secretion from isolated mouse pancreatic islets (Examples 5 and 7); assay type: cell-based; settings: 60 min
Protocol: Mouse pancreatic islets were isolated from 8-week old C57BL/6J male mice (Taconic). Mice were sacrificed by an overdose of isoflurane and cervical dislocation. 3 ml of 0.9 U/ml collagenase P was injected into the pancreatic duct to inflate the pancreas. The Pancreas was then removed and collagen digested for 19 min at 37° C. The samples Were vigorously shaken to disrupt the tissue. The digest was transferred into ice cold Hank's Balanced Salt Solution (HBSS) with Ca^2+ and Mg^2+. The suspension was allowed to sit for 10 min to allow the islet to sink, and the islets were washed in fresh HBSS four times. The islets were then hand-picked and sorted according to size. Islets (n=3 per well in a 96 well plate) were pre-incubated in KRB buffer during 10 min 37° C., pH 7.4, supplemented with 10 mM HEPES, 0.1% bovine serum albumin. After pre-incubation, the buffer was changed and islets were incubated at different test conditions in new KRB buffer with 0.1% bovine serum albumin (non-treated ctrl, FOL-005 peptide, or GLP-1) for 60 min at 37° C. Immediately after incubation, an aliquot of the buffer was removed and frozen for subsequent assay of insulin.
Mouse pancreatic islets were isolated from 8-week old C57BL/6J male mice as described under example 5. The islets were then hand-picked and sorted according to size. Islets (n=5 per well in a 96 well plate) were pre-incubated in 200 μl KRB buffer during 10 min 37° C., pH 7.4, supplemented with 10 mM HEPES, 0.1% bovine serum albumin. Following pre-incubation, the buffer was changed and islets were incubated in different test conditions in new KRB buffer with 0.1% bovine serum albumin (non-treated ctrl, FOL-014 peptide, and GLP-1) for 60 min at 37° C. Immediately after incubation, an aliquot of the buffer was removed and frozen for subsequent assay of insulin.

BB lyp/lyp rats = experiment: Onset of type 1 diabetes in BB lyp/lyp rats; assay type: in vivo, rat; settings: 100 nmol/kg subcutaneously 3 times/week from day 40, vs placebo
Protocol: BB lyp/lyp rats were randomized for placebo (sodium chloride, 9 mg/ml) or FOL-014 treatment 3 times/week from day 40 until onset of type 1 diabetes, defined as plasma glucose levels ≥11.1 mM. The dose of 100 nmol/kg FOL-014 peptide in saline or placebo (saline) was administered subcutaneously and the animals were terminated immediately upon exceeding critical plasma glucose levels. The difference between FOL-014 treated animals and animals receiving placebo treatment was significant both when expressed as average age for onset of type 1 diabetes (FIG. 10A) and when described as percentage of animals developing type 1 diabetes per day (FIG. 10B).

db/db mice = experiment: HbA1c in db/db mice after 4 weeks of dosing; assay type: in vivo, mouse; settings: 100 nmol/kg subcutaneously, 5 days per week for 4 weeks, vs PBS control
Protocol: To investigate the long-term effect of FOL-014 and FOL-056 in diabetic mice, db/db mice were dosed with 100 nmol/kg peptide subcutaneously, 5 days per week for 4 weeks. Control mice were injected with PBS. After 4 weeks of treatment the mice were terminated and 25 μl whole blood was immediately frozen for subsequent HbA1c analysis. (FIG. 21).

For “KPLAEIDSIELSYGIK (MISC_FEATURE - peptide, FOL-014)”, the “proliferation of INS-1 cells” value (INS-1 cells) was “stimulated proliferation compared to control; also recorded: induced more proliferation compared to only BSA coated wells”, the insulin secretion (INS-1 β-cells) was “secreted more insulin compared to unstimulated control cells” and the insulin secretion (mouse pancreatic islets; Example 7, 0.6 μM) was “did not affect insulin secretion; also recorded: had no effect on insulin secretion”. For the same sequence, the insulin secretion (mouse pancreatic islets; Example 7, 6 μM, vs unstimulated control islets) was “secreted more insulin compared to unstimulated control islets”, the “onset of type 1 diabetes” value (BB lyp/lyp rats) was “significantly delayed the onset of type-1 diabetes; also recorded: significant delay in the onset of diabetes” and the HbA1c (db/db mice) was “reduce the HbA1c in db/db mice as compared with the untreated control group; also recorded: significantly lower HbA1c”.

Reference: patent US20240327459A1, “PEPTIDE FRAGMENTS FOR TREATMENT OF DIABETES” (Follicum AB, priority 2018, published 2024)
